From PMC8167039, “A Comparative Study of Human and Zebrafish Pregnane X Receptor Activities of Pesticides and Steroids Using In Vitro Reporter Gene Assays” (Frontiers in Endocrinology, 2021)
“Also recorded” adds a separate entry of the source. Like-named read-outs stand apart in the source and are kept apart here.

Assays:
[1] = biological target: T1, zfPXR (Danio rerio, UniProt A5WYG8); experiment: HG5LN Gal4-zfPXR luciferase reporter gene assay, agonism; format: cell-based, zebrafish; set-up: Emax: dose or concentration left out as unconfirmed; conditions: for Emax: HG5LN, read-out: zfPXR agonism Max
T1 sequence (A5WYG8 entry or part of it): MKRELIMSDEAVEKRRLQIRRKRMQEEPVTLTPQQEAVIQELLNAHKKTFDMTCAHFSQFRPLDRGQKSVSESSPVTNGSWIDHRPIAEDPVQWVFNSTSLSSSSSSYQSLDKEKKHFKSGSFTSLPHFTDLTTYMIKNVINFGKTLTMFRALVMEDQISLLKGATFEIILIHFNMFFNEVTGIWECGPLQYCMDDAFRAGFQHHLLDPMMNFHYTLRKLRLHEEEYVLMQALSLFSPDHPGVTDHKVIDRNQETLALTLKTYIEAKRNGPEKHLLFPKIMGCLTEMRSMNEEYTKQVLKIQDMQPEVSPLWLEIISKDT
Description: (§1) The cell lines used in this study are listed in Supplementary Table 3 . The HG5LN, HG5LN Gal4-hPXR and HG5LN Gal4-zfPXR cell lines were previously described ([19]). Briefly, HeLa cells stably transfected with the GAL4RE5-βGlobin-Luc-SVNeo plasmid (HG5LN cell line) ([15]). HG5LN cells were stably transfected with the pSG5-GAL4(DBD)-hPXR(LBD)-puro or pSG5-GAL4(DBD)-zfPXR(LBD)-puro plasmids.
(§2) HG5LN cells were cultured in Dulbecco’s Modified Eagle Medium: Nutrient Mixture F-12 (D-MEM/F-12) containing phenol red and 1 g/L glucose and supplemented with 5% fetal bovine serum, 100 units/mL of penicillin and 100 µg/mL of streptomycin supplemented with 1 mg/mL geneticin in a 5% CO2 humidified atmosphere at 37°C. HG5LN GAL4-hPXR and GAL4-zfPXR were cultured in the same culture medium supplemented with 0.5 µg/mL puromycin.
(§3) The ability of chemicals to modulate the hPXR and zfPXR was investigated in HG5LN, HG5LN-hPXR, HG5LN-zfPXR, and ZFL-zfPXR cell lines after exposure to serial dilutions of the compounds and measurement of luciferase activity. […] Briefly, cells were seeded in 96-well white opaque flat bottom microplates at 0.5 10^5 cells per well in culture medium. […] Cells were then exposed to a concentration range of the compounds by using an automated workstation (Biomek 3000, Beckman Coulter). The final concentration of DMSO in the well never exceeds 0.1% (v/v). After 16h of exposure, medium was removed and 50 µL of test medium containing 0.3 mM D-luciferin were added per well. After 5 min, the production of light was assessed in living cells using microplate reader (MicroBeta, PerkinElmer SAS, Courtabœuf, France).
(§4) In the transactivation assay, each compound was tested at various concentrations in three independent experiments at least. For each experiment, tests were performed in quadruplicates for each concentration, and data are expressed by means values with standard deviations. […] This allowed to determine EC50 and IC50 values of tested chemicals.

[2] = biological target: T2, hPXR (Homo sapiens, UniProt O75469); experiment: HG5LN Gal4-hPXR luciferase reporter gene assay, agonism
T2 sequence (O75469 146-433 limits assumed): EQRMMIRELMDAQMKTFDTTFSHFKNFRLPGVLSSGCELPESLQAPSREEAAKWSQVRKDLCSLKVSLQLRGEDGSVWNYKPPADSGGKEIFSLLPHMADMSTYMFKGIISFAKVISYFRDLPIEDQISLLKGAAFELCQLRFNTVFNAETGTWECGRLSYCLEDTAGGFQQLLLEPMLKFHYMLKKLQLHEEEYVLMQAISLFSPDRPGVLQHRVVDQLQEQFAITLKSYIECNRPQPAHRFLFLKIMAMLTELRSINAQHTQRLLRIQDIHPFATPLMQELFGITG
Description: as §1, §2, §3, §4

[3] = biological target: T1, zfPXR; experiment: HG5LN Gal4-zfPXR luciferase reporter gene assay, antagonism (coexposure with clotrimazole); format: cell-based, zebrafish
Description: as §1, §2, §3, §4

[4] = biological target: T1, zfPXR; experiment: cell-based
Description: as §3, §4

[5] = HG5LN-zfPXR cells, 16h exposure, n.a. = not active, read-out: zfPXR agonism EC50
[6] = HG5LN-hPXR, maximal activity at 10 µM, % of maximal induced by 3 µM SR 12813, DMSO 19 ± 6
[7] = HG5LN, read-out: zfPXR antagonism Min
[8] = read-out: hPXR agonism EC50, HG5LN-hPXR cells, 16h exposure, n.a. = not active
[9] = read-out: zfPXR antagonism IC50

Structure (SMILES): C#C[C@]1(O)CC[C@H]2[C@@H]3CCC4=CCCC[C@@H]4[C@H]3CC[C@@]21C [Lynestrenol, reference compound]
- EC50 [1, 5]: 230 ± 10 nM
- hPXR agonism Max [2]: 30%

Structure (SMILES): COCC(=O)N(c1c(C)cccc1C)C(C)C(=O)OC (stereo not drawn) [Metalaxyl]
- EC50 [1]: 20000 ± 3100 nM
- Emax [1]: 42%
- EC50 [2]: 31 ± 2.6 µM
- hPXR agonism Max [2, 6]: 40%

Structure (SMILES): CCc1cccc(C)c1N(C(=O)CCl)C(C)COC (stereo not drawn) [Metolachlor]
- EC50 [1]: 630 ± 30 nM
- Emax [1]: 115%
- EC50 [2]: 0.68 ± 0.07 µM
- hPXR agonism Max [2, 6]: 69%

Structure (SMILES): CC#C[C@]1(O)CC[C@H]2[C@@H]3CCC4=CC(=O)CCC4=C3[C@@H](c3ccc(N(C)C)cc3)C[C@@]21C [Mifepristone, reference compound]
- IC50 [3]: 0.08 ± 0.003 µM
- IC50 [4]: 60 ± 4 nM
- zfPXR antagonism Min ([4]; ZFL-zfPXR, compounds marked *, not tested above 3 µM, coexposure with 0.03 µM clotrimazole, % of maximal induced by 1 µM clotrimazole): 5%

Structure (SMILES): CCOc1cc(Oc2ccc(C(F)(F)F)cc2Cl)ccc1[N+](=O)[O-] [Oxyfluorfen]
- IC50 [3]: 10 ± 1.2 µM
- remaining activity at 10 µM [3, 7]: 56%
- EC50 [2]: 3 ± 0.1 µM
- hPXR agonism Max [2, 6]: 86%

Structure (SMILES): CCCC(Cn1cncn1)c1ccc(Cl)cc1Cl (stereo not drawn) [Penconazol]
- EC50 [1]: 1500 ± 100 nM
- Emax [1]: 51%
- hPXR agonism Max [2, 6]: 42%

Structure (SMILES): CCN(CC)c1nc(C)cc(OP(=S)(OC)OC)n1 [Pirimiphos-methyl]
- EC50 [1]: 1100 ± 100 nM
- Emax [1]: 103%
- EC50 [2]: 22 ± 23 µM
- hPXR agonism Max [2, 6]: 69%

Structure (SMILES): CC(=O)[C@H]1[C@H](C#N)C[C@H]2[C@@H]3CC=C4C[C@@H](O)CC[C@]4(C)[C@H]3CC[C@@]21C [Pregnenolone16α-carbonitrile, reference compound]
- effect on zfPXR transcriptional activity (in words) ([1]; HG5LN Gal-zfPXR cells): did not activate; also recorded: do not modulate
- effect on hPXR transcriptional activity (in words) ([2]; HG5LN Gal-hPXR cells): partially activated
- hPXR agonism Max [2, 6]: 32%
- EC50 [2, 8]: 22 ± 9.7 µM

Structure (SMILES): CCCOCCN(C(=O)CCl)c1c(CC)cccc1CC [Pretilachlor]
- EC50 [1]: 580 ± 70 nM
- EC50 [2]: 0.18 ± 0.02 µM
- hPXR agonism Max [2]: 94%

Structure (SMILES): CCCN(CCOc1c(Cl)cc(Cl)cc1Cl)C(=O)n1ccnc1 [Prochloraz]
- IC50 [3]: 11 ± 5.6 µM
- EC50 [2]: 1.8 ± 0.1 µM
- hPXR agonism Max [2]: 71%

Structure (SMILES): CC(=O)[C@H]1CC[C@H]2[C@@H]3CCC4=CC(=O)CC[C@]4(C)[C@H]3CC[C@]12C [Progesterone, reference compound]
- remaining activity at 10 µM ([3]; HG5LN; read-out: zfPXR antagonism Min): 14%
- IC50 [3, 9]: 0.64 ± 0.03 µM
- EC50 [2]: 9.1 ± 2.2 µM

Structure (SMILES): CCCC1COC(Cn2cncn2)(c2ccc(Cl)cc2Cl)O1 (stereo not drawn) [Propiconazole]
- EC50 [1]: 1000 ± 100 nM
- Emax [1]: 33%
- EC50 [2]: 13 ± 1.5 µM
- hPXR agonism Max [2, 6]: 58%

Structure (SMILES): CC(C)(C)C(O)(CCc1ccc(Cl)cc1)Cn1cncn1 (stereo not drawn) [Tebuconazole]
- IC50 [3]: 24 ± 4.3 µM
- remaining activity at 10 µM [3, 7]: 62%
- EC50 [2]: 6.8 ± 0.4 µM
- hPXR agonism Max [2, 6]: 71%

Structure (SMILES): c1ccc2[nH]c(-c3cscn3)nc2c1 [Thiabendazole]
- IC50 [3, 9]: 10 ± 0.7 µM

Structure (SMILES): COP(=S)(OC)Oc1c(Cl)cc(C)cc1Cl [Tolclofos-methyl]
- EC50 [1]: 2500 ± 100 nM
- Emax [1]: 88%
- EC50 [2]: 11 ± 0.3 µM
- hPXR agonism Max [2, 6]: 59%

Structure (SMILES): CC1(C)C(C(Cl)Cl)C2(Cl)C(Cl)C(Cl)C1(Cl)C2(Cl)Cl (stereo not drawn) [Toxaphene]
- EC50 [1]: 150 ± 10 nM
- EC50 [2]: 0.75 ± 0.03 µM
- hPXR agonism Max [2]: 89%

Structure (SMILES): ClC1=C(Cl)[C@]2(Cl)[C@H]3[C@H]([C@H](Cl)C(Cl)[C@@H]3Cl)[C@@]1(Cl)C2(Cl)Cl (stereo partly drawn) [Trans-nonachlor]
- EC50 [1, 5]: 29000 ± 5500 nM
- zfPXR agonism Max ([1]; HG5LN-zfPXR, maximal activity at 10 µM, % of maximal induced by 1 µM clotrimazole, DMSO 28 ± 1.7): 43%
- hPXR agonism Max [2, 6]: 70%
- EC50 [2, 8]: 5.3 ± 0.2 µM

Structure (SMILES): CCCOC/C(=N\c1ccc(Cl)cc1C(F)(F)F)n1ccnc1 [Triflurnizole]
- EC50 [1]: 6000 ± 800 nM
- Emax [1]: 48%
- EC50 [2]: 21 ± 14 µM
